Each structure is given as a SMILES string.

The target of the first experiment is human CXCR3-A receptor (Homo sapiens (Human), UniProt P49682). In words: 125I-CXCL10 competition radioligand binding assay.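 Further: One-hour incubation of membranes with tracer, bound radioligand separated by glass fibre filtration, IC50 derived from four-parameter nonlinear fit of competition curves.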
human CXCR3-A receptor, sequence (P49682 whole entry): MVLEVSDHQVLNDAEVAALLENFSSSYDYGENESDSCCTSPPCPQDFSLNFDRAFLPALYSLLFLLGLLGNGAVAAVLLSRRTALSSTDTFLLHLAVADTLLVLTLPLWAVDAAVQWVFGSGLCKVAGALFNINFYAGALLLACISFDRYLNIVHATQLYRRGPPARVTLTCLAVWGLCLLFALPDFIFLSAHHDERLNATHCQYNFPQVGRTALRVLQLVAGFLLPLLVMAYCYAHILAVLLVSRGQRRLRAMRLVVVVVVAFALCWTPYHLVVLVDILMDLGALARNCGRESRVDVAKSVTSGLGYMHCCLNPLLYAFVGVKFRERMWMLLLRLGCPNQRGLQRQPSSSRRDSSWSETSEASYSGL
Settings: not given
Consider `CCCCN(Cc1ccc(OCCN2C(=O)CCC2=O)c(OC)c1)C(CC(=O)O)c1ccc(Cl)cc1` (centres unmarked) [Example 38, 3-(Butyl-{4-[2-(2,5-dioxo-pyrrolidin-1-yl)-ethoxy]-3-methoxy-benzyl}-amino)-3-(4-chloro-phenyl)-propionic acid], for which the IC50 (commonly the concentration that inhibits the measured activity by half) came to 0.045 µM.

Still in this experiment, the particulars now being: displacement of 125I-CXCL10 from membranes of CHO cells expressing human recombinant CXCR3-A.
Consider `CCCCN(Cc1ccc(OCCN2C(=O)CCC2=O)c(F)c1)C(CC(=O)O)c1ccc(Cl)cc1` (centres unmarked) [Example 54, 3-(Butyl-{4-[2-(2,5-dioxo-pyrrolidin-1-yl)-ethoxy]-3-fluoro-benzyl}-amino)-3-(4-chloro-phenyl)-propionic acid], for which the IC50 was determined as 0.306 µM.

`Cc1cc(CN(C)C(c2ccc(Cl)cc2)C(C)C(=O)O)ccc1OCCN1C(=O)CCC1=O` (centres unmarked) [Example 176]: the IC50 stood at 5.52 µM.

For the compound `COc1cc(CN(CC2CC2)C(CC(=O)O)c2ccc(Cl)c(Cl)c2)ccc1SCCN1C(=O)CCC1=O` (centres unmarked) [Example 191, 3-(Cyclopropylmethyl-{4-[2-(2,5-dioxo-pyrrolidin-1-yl)-ethylsulfanyl]-3-methoxy-benzyl}-amino)-3-(3,4-dichloro-phenyl)-propionic acid], the IC50 was determined as 0.02 µM.

For `Cc1cc(CN(CC2CCCC2)C(CC(=O)O)c2ccc3c(c2)CCO3)ccc1OCCN1C(=O)CCC1=O` (centres unmarked) [Example 147, 3-(Cyclopentylmethyl-{4-[2-(2,5-dioxo-pyrrolidin-1-yl)-ethoxy]-3-methyl-benzyl}-amino)-3-(2,3-dihydro-benzofuran-5-yl)-propionic acid], the half-maximal inhibitory concentration (IC50) turned out to be 0.046 µM.

With `Cc1cc(CN(CCC(F)(F)F)C(CC(=O)O)c2ccc(Cl)cc2)ccc1OCCn1c(=O)ccn(C)c1=O` (centres unmarked) [Example 129, 3-(4-Chloro-phenyl)-3-[{3-methyl-4-[2-(3-methyl-2,6-dioxo-3,6-dihydro-2H-pyrimidin-1-yl)-ethoxy]-benzyl}-(3,3,3-trifluoro-propyl)-amino]-propionic acid], the IC50 was 2.15 µM.

For the compound `COc1cc(CN(CC2CC2)C(CC(=O)O)c2ccc(Cl)cc2)ccc1CCCN1C(=O)CCC1=O` (centres unmarked) [Example 132, 3-(4-Chloro-phenyl)-3-(cyclopropylmethyl-{4-[3-(2,5-dioxo-pyrrolidin-1-yl)-propyl]-3-methoxy-benzyl}-amino)-propionic acid], the IC50 amounted to 0.192 µM.

Take `Cc1cc(CN(CC2CC2)C(CC(=O)O)c2ccc(Cl)c(F)c2)ccc1OCCN1C(=O)CCC1=O` (centres unmarked) [Example 74, 3-(4-Chloro-3-fluoro-phenyl)-3-(cyclopropylmethyl-{4-[2-(2,5-dioxo-pyrrolidin-1-yl)-ethoxy]-3-methyl-benzyl}-amino)-propionic acid]: the IC50 stood at 0.034 µM.

For `CCc1cc(CN(CC(C)C)C(CC(=O)O)c2ccc(Cl)cc2)ccc1OCCN1C(=O)CCC1=O` (centres unmarked) [Example 86, 3-(4-Chloro-phenyl)-3-({4-[2-(2,5-dioxo-pyrrolidin-1-yl)-ethoxy]-3-ethyl-benzyl}-isobutyl-amino)-propionic acid], the IC50 turned out to be 0.012 µM.

Turning to `COc1cc(CN(C)C(c2ccc(Cl)cc2)C(C)C(=O)O)ccc1OCCn1c(=O)ccn(C)c1=O` (centres unmarked) [Example 152, 3-(4-Chloro-phenyl)-3-({3-methoxy-4-[2-(3-methyl-2,6-dioxo-3,6-dihydro-2H-pyrimidin-1-yl)-ethoxy]-benzyl}-methyl-amino)-2-methyl-propionic acid], the IC50 is 0.754 µM.

As to `COc1cc(CN(CC2CC2)C(CC(=O)O)c2ccc(Cl)cc2)ccc1OCCN1C(=O)CCC1=O` (centres unmarked) [Example 36, 3-(4-Chloro-phenyl)-3-(cyclopropylmethyl-{4-[2-(2,5-dioxo-pyrrolidin-1-yl)-ethoxy]-3-methoxy-benzyl}-amino)-propionic acid], the IC50 was found to be 0.02 µM.

As to `CCc1cc(CN(CC2CC2)C(CC(=O)O)c2ccc(Cl)c(F)c2)ccc1OCCN1C(=O)CCC1=O` (centres unmarked) [Example 90, 3-(4-Chloro-3-fluoro-phenyl)-3-(cyclopropylmethyl-{4-[2-(2,5-dioxo-pyrrolidin-1-yl)-ethoxy]-3-ethyl-benzyl}-amino)-propionic acid], the IC50 was 0.05 µM.

For `COc1cc(CN(CC2CCCC2)C(CC(=O)O)c2ccc3c(c2)CCO3)ccc1OCCn1c(=O)ccn(C)c1=O` (centres unmarked) [Example 127, 3-(Cyclopentylmethyl-{3-methoxy-4-[2-(3-methyl-2,6-dioxo-3,6-dihydro-2H-pyrimidin-1-yl)-ethoxy]-benzyl}-amino)-3-(2,3-dihydro-benzofuran-5-yl)-propionic acid], the IC50 is 0.038 µM.

In the case of `O=C(O)C[C@@H](c1ccc(Cl)cc1)N(Cc1ccc(OCCN2C(=O)CCC2=O)c(Cl)c1)CC1CCC1` [Example 104, (S)-3-({3-Chloro-4-[2-(2,5-dioxo-pyrrolidin-1-yl)-ethoxy]-benzyl}-cyclobutylmethyl-amino)-3-(4-chloro-phenyl)-propionic acid], the IC50 was 0.145 µM.

As to `COc1cc(CN(CC2CCCC2)C(CC(=O)O)c2ccc(Cl)c(F)c2)ccc1SCCN1C(=O)CCC1=O` (centres unmarked) [Example 190, 3-(4-Chloro-3-fluoro-phenyl)-3-(cyclopentylmethyl-{4-[2-(2,5-dioxo-pyrrolidin-1-yl)-ethylsulfanyl]-3-methoxy-benzyl}-amino)-propionic acid], the IC50 was determined as 0.062 µM.

Regarding `CCc1cc(CN(CC2CC2)C(CC(=O)O)c2ccc(Cl)cc2)ccc1OCCN1C(=O)CCC1=O` (centres unmarked) [Example 84, 3-(4-Chloro-phenyl)-3-(cyclopropylmethyl-{4-[2-(2,5-dioxo-pyrrolidin-1-yl)-ethoxy]-3-ethyl-benzyl}-amino)-propionic acid], the IC50 worked out at 0.045 µM.

Turning to `COc1cc(CN(CC(C)C)C(CC(=O)O)c2ccc(Cl)c(Cl)c2)ccc1SCCN1C(=O)CCC1=O` (centres unmarked) [Example 193, 3-(3,4-Dichloro-phenyl)-3-({4-[2-(2,5-dioxo-pyrrolidin-1-yl)-ethylsulfanyl]-3-methoxy-benzyl}-isobutyl-amino)-propionic acid], the IC50 stood at 0.072 µM.

With `CCc1cc(CN(CC2CCCCC2)C(CC(=O)O)c2ccc(Cl)cc2)ccc1OCCN1C(=O)CCC1=O` (centres unmarked) [Example 89, 3-(4-Chloro-phenyl)-3-(cyclohexylmethyl-{4-[2-(2,5-dioxo-pyrrolidin-1-yl)-ethoxy]-3-ethyl-benzyl}-amino)-propionic acid], the IC50 amounted to 0.051 µM.

Turning to `CCN(Cc1ccc(OCCn2c(=O)ccn(C)c2=O)c(C)c1)C(CC(=O)O)c1ccc2c(c1)CCO2` (centres unmarked) [Example 154, 3-(2,3-Dihydro-benzofuran-5-yl)-3-(ethyl-{3-methyl-4-[2-(3-methyl-2,6-dioxo-3,6-dihydro-2H-pyrimidin-1-yl)-ethoxy]-benzyl}-amino)-propionic acid], the IC50 came out at 0.058 µM.

Regarding `CCc1cc(CN(CC2CCCCC2)C(CC(=O)O)c2ccc(Cl)c(Cl)c2)ccc1OCCN1C(=O)CCC1=O` (centres unmarked) [Example 101, 3-(Cyclohexylmethyl-{4-[2-(2,5-dioxo-pyrrolidin-1-yl)-ethoxy]-3-ethyl-benzyl}-amino)-3-(3,4-dichloro-phenyl)-propionic acid], the IC50 turned out to be 0.292 µM.

As for `CCCN(Cc1ccc(OCCN2C(=O)CCC2=O)c(C)c1)C(CC(=O)O)c1ccc(Cl)c(Cl)c1` (centres unmarked) [Example 79, 3-(3,4-Dichloro-phenyl)-3-({4-[2-(2,5-dioxo-pyrrolidin-1-yl)-ethoxy]-3-methyl-benzyl}-propyl-amino)-propionic acid], the IC50 was 0.116 µM.

With `CCCCN(Cc1ccc(OCCN2C(=O)CCC2=O)c(C)c1)C(CC(=O)O)c1ccc(Cl)c(Cl)c1` (centres unmarked) [Example 81, 3-(Butyl-{4-[2-(2,5-dioxo-pyrrolidin-1-yl)-ethoxy]-3-methyl-benzyl}-amino)-3-(3,4-dichloro-phenyl)-propionic acid], the IC50 was 0.1 µM.

In the case of `COc1cc(CN(CC2CCCC2)C(CC(=O)O)c2ccc3c(c2)CCO3)ccc1CCCN1C(=O)CCC1=O` (centres unmarked) [Example 139, 3-(Cyclopentylmethyl-{4-[3-(2,5-dioxo-pyrrolidin-1-yl)-propyl]-3-methoxy-benzyl}-amino)-3-(2,3-dihydro-benzofuran-5-yl)-propionic acid], the IC50 is 0.054 µM.

Take `CCN(Cc1ccc(OCCn2c(=O)ccn(C)c2=O)c(OC)c1)C(CC(=O)O)c1ccc(Cl)c(Cl)c1` (centres unmarked) [Example 126, 3-(3,4-Dichloro-phenyl)-3-(ethyl-{3-methoxy-4-[2-(3-methyl-2,6-dioxo-3,6-dihydro-2H-pyrimidin-1-yl)-ethoxy]-benzyl}-amino)-propionic acid]: the IC50 worked out at 0.31 µM.

Regarding `COc1cc(CN(CC2CCCCC2)C(CC(=O)O)c2ccc(Cl)cc2)ccc1OCCN1C(=O)CCC1=O` (centres unmarked) [Example 40, 3-(4-Chloro-phenyl)-3-(cyclohexylmethyl-{4-[2-(2,5-dioxo-pyrrolidin-1-yl)-ethoxy]-3-methoxy-benzyl}-amino)-propionic acid], the IC50 came out at 0.04 µM.

Regarding `CN1CC(=O)N(CCOc2ccc(CN(CC3CCCC3)[C@H](CC(=O)O)c3ccc(Cl)cc3)cc2Cl)C1=O` [Example 201, (R)-3-({3-Chloro-4-[2-(3-methyl-2,5-dioxo-imidazolidin-1-yl)-ethoxy]-benzyl}-cyclopentylmethyl-amino)-3-(4-chloro-phenyl)-propionic acid], the IC50 worked out at 0.886 µM.

On to `Cc1cc(CN(CC2CCCCC2)C(CC(=O)O)c2ccc3c(c2)CCO3)ccc1OCCN1C(=O)CCC1=O` (centres unmarked) [Example 149, 3-(Cyclohexylmethyl-{4-[2-(2,5-dioxo-pyrrolidin-1-yl)-ethoxy]-3-methyl-benzyl}-amino)-3-(2,3-dihydro-benzofuran-5-yl)-propionic acid], for which the 50% inhibitory concentration (IC50) was 0.072 µM.

Consider `O=C(O)CC(c1ccc(Cl)c(F)c1)N(Cc1ccc(OCCN2C(=O)CCC2=O)c(F)c1)CC1CCCC1` (centres unmarked) [Example 60, 3-(4-Chloro-3-fluoro-phenyl)-3-(cyclopentylmethyl-{4-[2-(2,5-dioxo-pyrrolidin-1-yl)-ethoxy]-3-fluoro-benzyl}-amino)-propionic acid], for which the concentration for half-maximal inhibition (IC50) came to 0.243 µM.

For the compound `CCCCN(Cc1ccc(OCCN2C(=O)CCC2=O)c(OC)c1)C(CC(=O)O)c1ccc(Cl)cc1Cl` (centres unmarked) [Example 150, 3-(Butyl-{4-[2-(2,5-dioxo-pyrrolidin-1-yl)-ethoxy]-3-methoxy-benzyl}-amino)-3-(2,4-dichloro-phenyl)-propionic acid], the IC50 turned out to be 0.14 µM.

(Values after patent publication US9447038B2 (SANOFI, priority 2012, dated 2016).)
